Laboratory results published in patent US8021661B2, “Cripto binding molecules” (Biogen Idec MA Inc., priority 2005, dated 2011).

What was measured:
NCCIT xenograft tumors = assay: Established NCCIT human testicular carcinoma xenografts; type: in vivo, athymic nude mice; conditions: cis-platinum 2 mg/kg/injection SC 3×/wk×6; Day 20 to Day 66
Description: Treatments were initiated on Day 15 when the tumors reached a minimum change in size of 100 mg.
One hundred fifty (150) male athymic nude mice (Harlan Sprague Dawley, Madison, Wis.) were started on the study at seven to eight weeks of age. Animals were acclimated to the laboratory for at least five days prior to implantation of the tumor. Housing was in ventilated cage racks, and food and water were allowed ad libitum.
NCCIT cells were obtained from the American Tissue Type Collection (Manassas, Va.). The cell line was passed in vitro 4 times prior to implantation. Cells were grown in vitro in RPMI-1640+10% fetal bovine serum (FBS) media without antibiotics (5% CO2).
An inoculum of 5×10^6 NCCIT cells in 200 L RPMI-1640 without serum (25%) plus Matrigel (75%) was implanted SC into the right flank area on Day 0. Tumor size and body weight measurements were recorded at least twice weekly beginning on Day 6. On Day 15, mice with tumors with a minimum increase in tumor weight of 100 mg and a maximum increase of 244 mg, excluding tumors with non-progressive growth, were randomized to treatment and control groups (see Table 12). […]
Tumor measurements were determined using digital calipers. Body weights and tumor size measurements were recorded on Day 6 and were continued at least twice weekly until the termination of the study. […]

Calu-6 xenograft tumors = assay: Established Calu-6 human lung xenografts; type: in vivo, athymic nude mice; conditions: irinotecan 10 mg/kg on Day 13-14, 17-21, 24-26; Day 20 until Day 45
Description: One hundred sixty (160) female athymic nude mice (Harlan Sprague Dawley, Madison, Wis.) were started on the study at eight to nine weeks of age. Animals were acclimated to the laboratory for at least five days prior to implantation of the tumor. Housing was in ventilated cage racks, and food and water were allowed ad libitum.
Calu-6 cells were obtained from the American Tissue Type Collection (Manassas, Va.). The cell line was passed in vitro 11 times prior to implantation. Cells were grown in vitro in RPMI-1640+10% fetal bovine serum (FBS) media without antibiotics (5% CO2). Bacterial cultures were performed on aliquots of the tumor homogenate preparation that was implanted into the mice.
On Day −1, the mice were implanted SC with BioMedics animal ID chips (Model IMI-1000; Seaford, Del.) subcutaneously on the left flank. An inoculum of 5×10^6 Calu-6 cells in 200 μL RPMI-1640 without serum was implanted SC into the right flank area on Day 0. Tumor size and body weight measurements were recorded at least twice weekly beginning on Day 4. When the tumors measured a minimum of 100 mg, the mice were randomized to treatment and control groups (see Table 13). […]
Tumor measurements were determined using digital calipers. Body weights and tumor size measurements were recorded on Day 4 and were continued twice weekly until the termination of the study. […]

BT-474 xenograft tumors = assay: Established BT-474 human breast tumor xenografts, full-length B3F6.1-DM4; type: in vivo, athymic nude mice; conditions: Taxol 25 mg/kg IP q4d×3 starting Day 15
Description: One hundred forty (140) female athymic nude mice (Harlan Sprague Dawley, Madison, Wis.) were started on the study at ten weeks of age. Animals were acclimated to the laboratory for at least five days prior to implantation of the tumor. Housing was in ventilated cage racks, and food and water were allowed ad libitum.
BT-474 tumors were obtained from cryopreserved solid tumor fragments from a serially passaged in vivo donor line established at Biogen Idec (cryo reg #0141, established originally from cells obtained from the […] (Manassas, Va.)). Tumor fragments were removed from cryopreservation and serially passaged SC in vivo for 3 generations in female athymic nude mice prior to implantation for this study. […]
On Day −1, the mice were implanted with BioMedics animal ID chips (Model IMI-1000; Seaford, Del.) SC on the left flank. […] Tumor size and body weight measurements were recorded at least twice weekly beginning on Day 5. When the tumors measured a minimum of 100 mg (Day 15), mice were randomized to treatment and control groups (see Table 10) based on tumor size and excluding tumors with non-progressive growth. […]
Tumor measurements were determined using digital calipers. Body weights and tumor size measurements were recorded on Day 0 and were continued twice weekly until the termination of the study. […]

[1] = Size exclusion chromatography of purified antibody; type: physicochemical; conditions: purified using only the Protein G column
Description: Antibody was produced and purified using methods described in Example 4 above. […] Reduced and non-reduced purified protein samples were analyzed by SDS-PAGE electrophoresis. Under non-reducing conditions, Form A is expected to migrate as a single 120 kDa homodimer and Form B as a 60 kDa doublet.
Reduced and non-reduced purified protein samples were analyzed by SDS-PAGE electrophoresis. Under these conditions, Form A is expected to migrate as a single 120 kDa homodimer and Form B as a 60 kDa doublet.

N.N.[Cl][Pt][Cl] [Cis-platinum, cisplatin]
inhibition of tumor growth (NCCIT xenograft tumors): significant inhibition (P<0.05) of tumor growth from Day 20 to Day 66

CCc1c2c(nc3ccc(OC(=O)N4CCC(N5CCCCC5)CC4)cc13)-c1cc3c(c(=O)n1C2)COC(=O)[C@]3(O)CC [Irinotecan, irinotecan]
inhibition of tumor growth (Calu-6 xenograft tumors): significant (P<0.001) inhibition of tumor growth

CC(=O)O[C@H]1C(=O)[C@@]2(C)[C@H]([C@H](OC(=O)c3ccccc3)[C@]3(O)C[C@H](OC(=O)[C@H](O)[C@@H](NC(=O)c4ccccc4)c4ccccc4)C(C)=C1C3(C)C)[C@]1(OC(C)=O)CO[C@@H]1C[C@@H]2O [Taxol, paclitaxel]
inhibition of tumor growth (BT-474 xenograft tumors): significant (P<0.05) inhibition of tumor growth from Day 26 to Day 50

B1: chimeric dd-B3F6: CH2 domain-deleted chimeric B3F6 with connecting peptide SEQ ID NO: 5; heavy chain SEQ ID NO: 3, light chain SEQ ID NO: 4 (antibody)
heavy: QVQLQQVGAELVKPGASVKLSCKASGYTFTSYWIHWVKQRPGQGLEWIGENDPSNGRTNYNEKFKNKATLTVDKSSSTAYMHLSSLTSEDSAVYYCSRGPNYFYSMDYWGQGTSVTVSSASTKGPSVFPLAPSSKSTSGGTAALGCLVKDYFPEPVTVSWNSGALTSGVHTFPAVLQSSGLYSLSSVVTVPSSSLGTQTYICNVNHKPSNTKVDKKVEPKSCDKTHTCPPCPEPKSCDTPPPCPRCPAPGGGSSGGGSGGQPREPQVYTLPPSRDELTKNQVSLTCLVKGFYPSDIAVEWESNGQPENNYKTTPPVLDSDGSFFLYSKLTVDKSRWQQGNVFSCSVMHEALHNHYTQKSLSLSPG
light: DFLMTQTPLSLPVSLGDQASISCRSSQSIVHSNGNTYLEWYLQKPGQSPKLLIYKVSNRFSGVPDRFSGSGSGTDFTLKISRVEAEDLGVYYCFQGSHVPLTFGAGTKLELKRTVAAPSVFIFPPSDEQLKSGTASVVCLLNNFYPREAKVQWKVDNALQSGNSQESVTEQDSKDSTYSLSSTLTLSKADYEKHKVYACEVTHQGLSSPVTKSFNRGEC
monomer (size exclusion chromatography) [1]: 93-98%
